ChEMBL document CHEMBL3822446, “Synthesis of 1H-pyrrolo[3,2-h]quinoline-8-amine derivatives that target CTG trinucleotide repeats” (Bioorg Med Chem Lett, 2016)
Active and inactive are the calls of the source. The rule behind the calls is not given here.

Assays:
[1] = Binding affinity to 5'-Biotinylated DNA d(CTG)9-3' (unknown origin) assessed as red shifting of abosrption band at 349 nm at 10 uM by UV-spectrophotometric analysis
[2] = Binding affinity to 5'-biotinylated DNA d(CTG)9-3' (unknown origin) after 120 sec by SPR assay; conditions: read-out: Kd(app)
[3] = Binding affinity to 5'-Biotinylated DNA d(CCG)9-3' (unknown origin) after 120 sec by SPR assay; conditions: read-out: Kd(app)
[4] = Binding affinity to full match duplex DNA (unknown origin) assessed as change in melting point at 50 uM by UV-Vis spectrophotometric analysis
[5] = Binding affinity to duplex DNA dA bulge (unknown origin) assessed as change in melting point at 50 uM by UV-Vis spectrophotometric analysis
[6] = Binding affinity to 5'-Biotinylated DNA d(CGG)9-3' (unknown origin) at 0.63 to 10 uM after 120 sec by SPR assay
[7] = Binding affinity to 5'-Biotinylated DNA d(CAG)9-3' (unknown origin) at 0.63 to 10 uM after 120 sec by SPR assay
[8] = Binding affinity to duplex DNA dG bulge (unknown origin) assessed as change in melting point at 50 uM by UV-Vis spectrophotometric analysis
[9] = Binding affinity to duplex DNA dT bulge (unknown origin) assessed as change in melting point at 50 uM by UV-Vis spectrophotometric analysis
[10] = Binding affinity to duplex DNA dC bulge (unknown origin) assessed as change in melting point at 50 uM by UV-Vis spectrophotometric analysis
[11] = Binding affinity to 5'-Biotinylated DNA d(CTG)9-3' (unknown origin) by isothermal titration calorimetry

NCCCNC(=O)Nc1ccc2ccc3cc[nH]c3c2n1
Activity [1]: 8 nm
Kd [2]: 20 µM
Kd [3]: 33 µM
ΔTm [4]: 0.8 °C
ΔTm [5]: 1.4 °C
Activity [6]: inactive
Activity [7]: inactive
ΔTm [8]: 1 °C
ΔTm [9]: 5.2 °C
ΔTm [10]: 5.8 °C
Kd [11]: 17 µM

NCCC(=O)Nc1ccc2ccccc2n1
ΔTm [9]: 0.3 °C

NCCC(=O)Nc1ccc2ccc3cc[nH]c3c2n1
ΔTm [4]: 0.9 °C
ΔTm [5]: 1.7 °C
ΔTm [8]: 1.7 °C
ΔTm [9]: 4.7 °C
ΔTm [10]: 3.5 °C

NCCCNC(=O)Nc1ccc2ccccc2n1
ΔTm [9]: 1.3 °C

NCCCC(=O)Nc1ccc2ccc3cc[nH]c3c2n1
ΔTm [9]: 3.6 °C

NCCCCC(=O)Nc1ccc2ccc3cc[nH]c3c2n1
ΔTm [9]: 2.6 °C

Nc1cccc(N)n1
Activity [1]: inactive

NCC(=O)Nc1ccc2ccc3cc[nH]c3c2n1
ΔTm [9]: 2.9 °C
